According to patent US9556191B2, “Aminoquinazoline derivatives and their salts and methods of use thereof” (SUNSHINE LAKE PHARMA CO., LTD, priority 2013, dated 2017):

Legend:
[1] = molecular target: HER2 (human epidermal growth factor receptor 2) (Homo sapiens (Human), UniProt P04626); test: In vitro kinase inhibitory activity, HER-2; format: biochemical
Procedure: (§1) Stop buffer was prepared from 100 mM HEPES, pH 7.5, 0.015% Brij-35, 0.2% Coating Reagent #3, and 50 mM EDTA.
Kinase reaction was performed according to the following procedures: (1) 2.5× kinase solution was prepared by adding kinase into 1× kinase base buffer; (2) 2.5× peptide solution was prepared by adding FAM-labeled peptide and ATP into 1× kinase base buffer; (3) 2.5× kinase solution (10 μL) was added to each well of the 384-well assay plate containing 5 μL of compound in 10% DMSO and then the assay plate was incubated at room temperature for 10 minutes; (4) 2.5× peptide solution (10 μL) was added to each well of the 384-well assay plate; and (5) stop buffer (25 μL) was added to stop the kinase reaction after incubation at 28° C. for a specified period of time. […]
(§2) Conversion data were copied, and then converted to inhibition values with the following formula: percent inhibition=(max−conversion)/(max−min)*100 where “max” stands for the DMSO control value, “conversion” stands for the sample value and “[…]” stands for the no-kinase control value. The data were fitted in XLfit to obtain IC50 values.

[2] = molecular target: EGFR T790M (human epidermal growth factor receptor T790M mutation) (Homo sapiens (Human), UniProt P00533, T790M); test: In vitro kinase inhibitory activity, EGFR T790M; format: biochemical
EGFR T790M (human epidermal growth factor receptor T790M mutation), sequence (P00533 25-1210 T790M): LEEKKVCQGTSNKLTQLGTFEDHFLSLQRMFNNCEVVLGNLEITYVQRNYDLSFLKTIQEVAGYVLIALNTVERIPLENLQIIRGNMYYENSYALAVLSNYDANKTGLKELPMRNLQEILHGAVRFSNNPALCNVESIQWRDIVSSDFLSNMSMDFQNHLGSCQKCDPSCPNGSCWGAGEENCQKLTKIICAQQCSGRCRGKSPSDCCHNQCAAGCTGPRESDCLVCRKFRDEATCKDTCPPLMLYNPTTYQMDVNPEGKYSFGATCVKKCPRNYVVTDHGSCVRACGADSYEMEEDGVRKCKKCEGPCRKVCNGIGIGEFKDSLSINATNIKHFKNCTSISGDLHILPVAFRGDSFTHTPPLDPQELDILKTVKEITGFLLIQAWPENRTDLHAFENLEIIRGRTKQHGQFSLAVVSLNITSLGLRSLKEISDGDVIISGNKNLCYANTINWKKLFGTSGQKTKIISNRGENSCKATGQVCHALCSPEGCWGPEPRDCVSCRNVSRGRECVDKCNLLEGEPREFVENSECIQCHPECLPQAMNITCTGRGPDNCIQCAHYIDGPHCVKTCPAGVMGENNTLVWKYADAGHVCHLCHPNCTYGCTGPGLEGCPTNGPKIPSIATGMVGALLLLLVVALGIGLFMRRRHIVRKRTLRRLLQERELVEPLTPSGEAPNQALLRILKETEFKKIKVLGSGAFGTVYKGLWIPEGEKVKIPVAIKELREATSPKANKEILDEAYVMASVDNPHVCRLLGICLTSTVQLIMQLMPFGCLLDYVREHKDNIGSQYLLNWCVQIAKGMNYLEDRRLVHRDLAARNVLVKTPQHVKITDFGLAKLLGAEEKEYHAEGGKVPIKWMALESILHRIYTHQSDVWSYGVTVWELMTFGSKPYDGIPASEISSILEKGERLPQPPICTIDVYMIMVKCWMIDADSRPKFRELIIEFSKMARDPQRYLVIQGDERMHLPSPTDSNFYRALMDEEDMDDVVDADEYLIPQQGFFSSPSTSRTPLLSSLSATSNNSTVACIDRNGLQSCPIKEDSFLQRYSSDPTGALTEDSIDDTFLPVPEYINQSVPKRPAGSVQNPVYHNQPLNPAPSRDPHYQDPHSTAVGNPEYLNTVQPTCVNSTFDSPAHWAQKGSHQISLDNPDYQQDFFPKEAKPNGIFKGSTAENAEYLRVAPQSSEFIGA
Procedure: as §1
(§3) Kinase reaction was performed according to the following procedures: (1) 2.5× kinase solution was prepared by adding kinase into 1× kinase base buffer; (2) 2.5× peptide solution was prepared by adding FAM-labeled peptide and ATP into 1× kinase base buffer; (3) 2.5× kinase solution (10 μL) was added to each well of the 384-well assay plate containing 5 μL of compound in 10% DMSO and then the assay plate was incubated at room temperature for 10 minutes; (4) 2.5× peptide solution (10 μL) was added to each well of the 384-well assay plate; and (5) stop buffer (25 μL) was added to stop the kinase reaction after incubation at 28° C. for a specified period of time.
(§4) Multifunctional microplate reader (BMG LABTECH, PHER Astar FS) with a 320 nm excitation wavelength was used to read and collected the data of by absorbing light at […], which was converted from the rate of 665 signal/620 signal.
as §2

[3] = molecular target: EGFR (human epidermal growth factor receptor) (Homo sapiens (Human), UniProt P00533); test: In vitro kinase inhibitory activity, EGFR; format: biochemical
EGFR (human epidermal growth factor receptor), sequence (P00533 25-1210): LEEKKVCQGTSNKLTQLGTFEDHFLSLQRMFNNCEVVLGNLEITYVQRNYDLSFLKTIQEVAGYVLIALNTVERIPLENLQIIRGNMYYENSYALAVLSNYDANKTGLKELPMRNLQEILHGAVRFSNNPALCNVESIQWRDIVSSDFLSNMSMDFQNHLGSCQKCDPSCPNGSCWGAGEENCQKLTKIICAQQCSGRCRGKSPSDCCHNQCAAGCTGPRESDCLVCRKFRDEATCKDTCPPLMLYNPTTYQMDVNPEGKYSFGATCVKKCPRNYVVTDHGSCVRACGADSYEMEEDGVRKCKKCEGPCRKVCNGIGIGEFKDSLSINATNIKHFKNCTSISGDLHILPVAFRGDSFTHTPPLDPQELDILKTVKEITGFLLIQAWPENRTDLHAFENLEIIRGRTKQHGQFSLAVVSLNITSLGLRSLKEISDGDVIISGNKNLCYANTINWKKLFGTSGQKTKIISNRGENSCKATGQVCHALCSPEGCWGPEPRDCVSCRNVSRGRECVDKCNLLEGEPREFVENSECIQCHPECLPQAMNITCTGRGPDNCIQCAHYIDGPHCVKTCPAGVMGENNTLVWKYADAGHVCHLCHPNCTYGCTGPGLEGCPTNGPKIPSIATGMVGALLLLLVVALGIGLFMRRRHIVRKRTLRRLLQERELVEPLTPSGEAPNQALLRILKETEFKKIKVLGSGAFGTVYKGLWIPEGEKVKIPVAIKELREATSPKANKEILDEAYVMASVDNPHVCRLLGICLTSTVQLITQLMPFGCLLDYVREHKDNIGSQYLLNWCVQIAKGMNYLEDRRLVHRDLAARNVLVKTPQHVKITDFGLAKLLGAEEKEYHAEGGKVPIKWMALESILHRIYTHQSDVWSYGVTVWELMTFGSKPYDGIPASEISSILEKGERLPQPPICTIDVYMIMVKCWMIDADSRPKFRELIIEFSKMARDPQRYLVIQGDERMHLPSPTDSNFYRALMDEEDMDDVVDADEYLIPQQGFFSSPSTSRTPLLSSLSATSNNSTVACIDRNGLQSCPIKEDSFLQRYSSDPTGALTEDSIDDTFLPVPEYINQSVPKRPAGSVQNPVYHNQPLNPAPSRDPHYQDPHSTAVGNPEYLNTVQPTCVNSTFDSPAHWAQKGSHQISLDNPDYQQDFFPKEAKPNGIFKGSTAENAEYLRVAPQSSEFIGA
Procedure: as §1, §3, §4, §2

[4] = Rat PK (pharmacokinetics after iv and po administration); format: in vivo; conditions: male, SD, plasma; for Vd: read-out: Vss; for bioavailability: po 5 vs iv 2 (g/kg [sic]; mg/kg in method), read-out: F (bioavailability)
Text: Materials used include Propranolol (internal standard), methyl alcohol, ammonium acetate, K2EDTA (potassium ethylenediaminetetraacetate), methane acid, acetonitrile, MTBE (methyl tert-butyl ether), Cremophor EL (polyoxyethylated castor oil), KolliphorHS 15 (polyethylene glycol 12-hydroxystearate), DMSO (dimethylsulfoxide), PEG400 (polyethylene glycol 400) and SD rat (male, 180-220 g, 7-8 weeks old, purchased from Hunan Slack King of Laboratory Animal Co., Ltd.), all of which are commercially available.
Each test compound prepared in above examples was completely dissolved in a mixture of 5% DMSO, 5% KolliphorHS 15 and 90% saline.
(1) The test sample stock solution was prepared by dissolving an accurately weighed test sample in DMSO followed by dilution to the concentration of 1 mg/mL with acetonitrile. The stock solution was stored under the condition of −20° C. for later use.
(2) Internal standard solution was prepared by diluting a certain amount of the Propranolol stock solution in the concentration of 1 mg/mL to 100 ng/mL with water.
Samples treated with liquid-liquid extraction and chromatographic separation were analyzed by triple quadrupole tandem mass spectrometer in multiple reaction monitoring (MRM) mode for quantitative analysis.
Pretreatment of plasma sample was performed according to the following procedures: (1) plasma sample (30 μL) was precisely measured, and internal standard (250 μL) was then added to the plasma sample which was then mixed by vortexing; (2) the sample was extracted once with 1 mL of MTBE and then centrifuged at 13000 rpm for 2 minutes at 4° C.; (3) supernatant (800 μL) was aspirated and dried with 96 holes nitrogen gas blowing; (4) the residue was dissolved with 150 μL of a mixture of methanol and water (v/v=1/1) and then mixed by vortexing; and (5) sampling: sample quantity was 8 μL.
Preparation of standard sample was performed according to the following procedures: (1) a pre-determined amount of the compound stock solution was precisely measured, and then was diluted to standard series of solution with acetonitrile; (2) each of the standard solution (20 μL) prepared above was precisely measured and to each was added 180 μL of blank plasma; (3) each sample was mixed by vortexing to obtain series of standard samples in which the plasma concentration was 3, 5, 10, 30, 100, 300, 1000, 3000, 5000 or 10000 ng/mL; and (4) standard curve was established.
The content of each test compound in rat plasma after administration was determined by LC/MS/MS.
Noncompartmental analysis to calculate pharmacokinetic parameters was performed with WinNonlin 6.1 software.

[5] = iv(2 g/kg) [sic], method says 2 mg/kg
[6] = po(5 g/kg) [sic], method says 5 mg/kg

HER2 (human epidermal growth factor receptor 2), sequence (P04626 23-1255): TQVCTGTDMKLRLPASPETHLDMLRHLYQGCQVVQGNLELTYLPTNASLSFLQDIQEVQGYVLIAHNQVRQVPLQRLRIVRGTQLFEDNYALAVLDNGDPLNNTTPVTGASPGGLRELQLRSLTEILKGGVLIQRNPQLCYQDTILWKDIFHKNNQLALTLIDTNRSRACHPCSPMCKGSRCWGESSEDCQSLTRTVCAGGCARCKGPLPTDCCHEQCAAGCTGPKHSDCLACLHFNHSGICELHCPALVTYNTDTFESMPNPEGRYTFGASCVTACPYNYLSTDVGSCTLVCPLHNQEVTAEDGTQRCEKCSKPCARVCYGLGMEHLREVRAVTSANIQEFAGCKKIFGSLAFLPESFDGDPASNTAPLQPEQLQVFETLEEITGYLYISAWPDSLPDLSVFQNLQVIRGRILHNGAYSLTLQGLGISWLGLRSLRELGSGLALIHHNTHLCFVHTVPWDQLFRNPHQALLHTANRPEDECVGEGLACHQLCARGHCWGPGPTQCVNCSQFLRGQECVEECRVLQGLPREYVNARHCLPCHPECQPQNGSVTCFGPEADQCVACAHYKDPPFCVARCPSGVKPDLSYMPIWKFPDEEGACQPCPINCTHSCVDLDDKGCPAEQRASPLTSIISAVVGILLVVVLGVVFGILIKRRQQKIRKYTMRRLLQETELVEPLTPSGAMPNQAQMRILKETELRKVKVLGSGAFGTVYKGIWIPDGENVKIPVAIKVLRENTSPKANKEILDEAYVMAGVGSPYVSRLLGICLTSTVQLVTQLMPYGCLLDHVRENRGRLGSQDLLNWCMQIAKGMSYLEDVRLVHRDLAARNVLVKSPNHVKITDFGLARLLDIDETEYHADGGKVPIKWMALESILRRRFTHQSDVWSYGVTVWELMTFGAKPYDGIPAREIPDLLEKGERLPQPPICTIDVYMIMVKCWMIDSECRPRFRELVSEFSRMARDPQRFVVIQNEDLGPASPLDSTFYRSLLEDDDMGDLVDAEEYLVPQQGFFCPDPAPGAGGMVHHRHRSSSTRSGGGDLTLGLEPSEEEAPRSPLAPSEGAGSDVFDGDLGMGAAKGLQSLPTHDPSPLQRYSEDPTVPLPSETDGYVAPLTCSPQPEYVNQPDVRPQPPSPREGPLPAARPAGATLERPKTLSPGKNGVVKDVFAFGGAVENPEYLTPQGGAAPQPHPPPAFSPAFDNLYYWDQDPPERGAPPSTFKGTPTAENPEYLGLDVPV

Structure (SMILES)	IC50 [1] [nM]	IC50 [2] [nM]	IC50 [3] [nM]	AUC(0-t) [4, 5] [ng·h/mL]	Cmax [4, 5] [ng/mL]	half-life [4, 5] [h]	Vd [4, 5] [L/kg]	bioavailability [4] [%]	AUC(0-t) [4, 6] [ng·h/mL]	Cmax [4, 6] [ng/mL]	half-life [4, 6] [h]
O=C(/C=C/CN1C[C@@H]2OCCO[C@@H]2C1)Nc1ccc2ncnc(Nc3ccc4c(cnn4Cc4cccc(F)c4)c3)c2c1 [Example 26, (E)-N-(4-((1-(3-Fluorobenzyl)-1H-indazol-5-yl)amino)quinazolin-6-yl)-4-((4aR,7aS)-tetrahydro-2H-[1,4]dioxin[2,3-c]pyrrol-6(3H)-yl)but-2-enamide]	1.6	89.3	14	–	–	–	–	–	–	–	–
COCCOc1cc2ncnc(Nc3ccc(F)c(Cl)c3)c2cc1NC(=O)/C=C/CN1C[C@@H]2OCCO[C@@H]2C1 [Example 6, (E)-N-(4-((3-Chloro-4-fluorophenyl)amino)-7-(2-methoxyethoxy)quinazolin-6-yl)-4-((4aR,7aS)-tetrahydro-2H-[1,4]dioxino[2,3-c]pyrrol-6(3H)-yl)but-2-enamide]	10.4	8.7	1.8	–	–	–	–	–	–	–	–
O=C(/C=C/CN1C[C@@H]2OCCO[C@@H]2C1)Nc1ccc2ncnc(Nc3ccc(OCc4cccc(F)c4)c(Cl)c3)c2c1 [Example 21, (E)-N-(4-((3-Chloro-4-((3-fluorobenzyl)oxy)phenyl)amino)quinazolin-6-yl)-4-((4aR,7aS)-tetrahydro-2H-[1,4]dioxino[2,3-c]pyrrol-6(3H)-yl)but-2-enamide]	3.5	317	15	–	–	–	–	–	–	–	–
COc1cc2ncnc(Nc3ccc(Cl)c(Cl)c3F)c2cc1NC(=O)/C=C/CN1C[C@@H]2OCCO[C@@H]2C1 [Example 31, (E)-N-(4-((3,4-Dichloro-2-fluorophenyl)amino)-7-methoxyquinazolin-6-yl)-4-((4aR,7aS)-tetrahydro-2H-[1,4]dioxino[2,3-c]pyrrol-6(3H)-yl)but-2-enamide]	9.1	6.4	2.1	2990	1210	3.66	2.58	93.5	6980	794	3.16
O=C(/C=C/CN1C[C@@H]2OCCO[C@@H]2C1)Nc1cc2c(Nc3ccc(F)c(Cl)c3)ncnc2cc1OCC(F)(F)F [Example 7, (E)-N-(4-((3-Chloro-4-fluorophenyl)amino)-7-(2,2,2-trifluoroethoxy)quinazolin-6-yl)-4-((4aR,7aS)-tetrahydro-2H-[1,4]dioxino[2,3-c]pyrrol-6(3H)-yl)but-2-enamide]	44	22.6	15.4	–	–	–	–	–	–	–	–
COc1cc2ncnc(Nc3ccc(F)c(Cl)c3F)c2cc1NC(=O)/C=C/CN1C[C@@H]2OCCO[C@@H]2C1 [Example 35, (E)-N-(4-((3-Chloro-2,4-difluorophenyl)amino)-7-methoxyquinazolin-6-yl)-4-((4aR,7aS)-tetrahydro-2H-[1,4]dioxino[2,3-c]pyrrol-6(3H)-yl)but-2-enamide]	17.8	20	0.9	–	–	–	–	–	–	–	–
O=C(/C=C/CN1C[C@@H]2OCCO[C@@H]2C1)Nc1cc2c(Nc3ccc(F)c(Cl)c3)ncnc2cc1O[C@H]1CCOC1 [Example 5, (E)-N-(4-((3-Chloro-4-fluorophenyl)amino)-7-(((S)-tetrahydrofuran-3-yl)oxy)quinazolin-6-yl)-4-((4aR,7aS)-tetrahydro-2H-[1,4]dioxino[2,3-c]pyrrol-6(3H)-yl)but-2-enamide]	11.7	6.8	3.6	–	–	–	–	–	–	–	–
COc1cc2ncnc(Nc3ccc(OCc4cccc(F)c4)c(Cl)c3)c2cc1NC(=O)/C=C/CN1C[C@@H]2OCCO[C@@H]2C1 [Example 29, (E)-N-(4-((3-Chloro-4-((3-fluorobenzyl)oxy)phenyl)amino)-7-methoxyquinazolin-6-yl)-4-((4aR,7aS)-tetrahydro-2H-[1,4]dioxino[2,3-c]pyrrol-6(3H)-yl)but-2-enamide]	3.7	–	–	–	–	–	–	–	–	–	–
[2H]C([2H])([2H])Oc1cc2ncnc(Nc3ccc(F)c(Cl)c3)c2cc1NC(=O)/C=C/CN1C[C@@H]2OCCO[C@@H]2C1 [Example 20, (E)-N-(4-((3-Chloro-4-fluorophenyl)amino)-7-(methoxy-D3)quinazolin-6-yl)-4-((4aR,7aS)-tetrahydro 2H-[1,4]dioxino[2,3-c]pyrrol-6(3H)-yl)but-2-enamide]	–	–	–	1450	868	2.22	3.71	–	3190	336	3.6
CCOc1cc2ncnc(Nc3ccc(F)c(Cl)c3)c2cc1NC(=O)/C=C/CN1C[C@@H]2OCCO[C@@H]2C1 [Example 3, (E)-N-(4-((3-Chloro-4-fluorophenyl)amino)-7-ethoxyquinazolin-6-yl)-4-((4aR,7aS)-tetrahydro-2H-[1,4]dioxin[2,3-c]pyrrol-6(3H)-yl)but-2-enamide]	8.1	6.2	6.4	–	–	–	–	–	–	–	–
O=C(/C=C/CN1C[C@@H]2OCCO[C@@H]2C1)Nc1ccc2ncnc(Nc3ccc(OCc4ccccn4)c(Cl)c3)c2c1 [Example 22, (E)-N-(4-((3-Chloro-4-(pyridin-2-ylmethoxy)phenyl)amino)quinazolin-6-yl)-4-((4aR,7aS)-tetrahydro-2H-[1,4]dioxino[2,3-c]pyrrol-6(3H)-yl)but-2-enamide]	1.9	47.3	22	–	–	–	–	–	–	–	–
CCOc1cc2ncnc(Nc3ccc(OCc4cccc(F)c4)c(Cl)c3)c2cc1NC(=O)/C=C/CN1C[C@@H]2OCCO[C@@H]2C1 [Example 30, (E)-N-(4-((3-Chloro-4-((3-fluorobenzyl)oxy)phenyl)amino)-7-ethoxyquinazolin-6-yl)-4-((4aR,7aS)-tetrahydro-2H-[1,4]dioxino[2,3-c]pyrrol-6(3H)-yl)but-2-enamide]	6.6	133	31.9	–	–	–	–	–	–	–	–
COCCOc1cc2ncnc(Nc3ccc(Cl)c(Cl)c3F)c2cc1NC(=O)/C=C/CN1C[C@@H]2OCCO[C@@H]2C1 [Example 33, (E)-N-(4-((3,4-Dichloro-2-fluorophenyl)amino)-7-(2-methoxyethoxy)quinazolin-6-yl)-4-((4aR,7aS)-tetrahydro-2H-[1,4]dioxino[2,3-c]pyrrol-6(3H)-yl)but-2-enamide]	9.6	–	–	1250	890	1.29	2.77	44.5	1370	346	1.27
